Converted amounts (≈) assume the structure as drawn.
Key:
[1] = tested on: JAK1/2/3; assay: Enzymatic activity (IC50) test, Lance Ultra TR-FRET; conditions: JAK1/2/3 kinase platform; kinase not given
[2] = Competitive slurry test (XRD of the solid); format: physicochemical; conditions: for form transformation in competitive slurry: ethanol/water (1/1) (80°C), acetonitrile (70°C), acetonitrile/water (70°C)
Description: The relative stability of Form II and Form III was investigated by competitive slurry test. Approximately 5 mg of Form II and Form III were weighed, mixed, and then added in 1/1 ratio of methanol/n-heptane, ethanol and ethyl acetate, respectively, to prepare a suspension. The suspension was stirred at room temperature for several hours, then centrifuged and the solid was analyzed by XRD.
Competitive slurry studies were conducted to investigate the relative stability of Forms III, IV, and V. 5 mg of Forms III, IV, and V were weighed and mixed uniformly. Suspensions were prepared respectively in ethanol (80°C), ethanol/water (1/1) (80°C), water (60°C), water (25°C), acetonitrile (70°C), and acetonitrile/water (1/1) (70°C). The suspensions were stirred for 12 hours, and the solids were centrifuged and analyzed by XRD. Table 6: Competitive slurry results of Forms III, IV and V

[3] = Stability investigation (HPLC purity at 220 nm and XRD); format: physicochemical; conditions: for chemical stability / crystal form change: 40°C/75%RH and 25°C/60%RH for 7 days
Description: The analysis method is as follows: Octadecylsilane bonded silica gel was used as the filler (Kromasil C 18 4.6 mm × 250 mm, 5 µm); 0.01 mol/L potassium dihydrogen phosphate solution (pH was adjusted to 3.0 with phosphoric acid) was used as mobile phase A, and methanol was used as mobile phase B. Gradient elution was performed according to the table below; the detection wavelength was 220 nm; the column temperature was 40°C; the flow rate was 1.0 ml/min; the injection volume was 10 µl, and the HPLC purity was calculated by the area normalization method.
Appropriate amounts of Form III, IV, and V were weighed in sample bottles and stored uncovered at 80°C, 40°C/75% RH, and 25°C/60% RH for 7 days. Samples were collected at 0, 1, 3, and 7 days for HPLC and XRD analysis. Table 7 Stability test results of Form III, IV and V

[4] = Solubility determination in buffer solutions (HPLC); format: physicochemical; conditions: for solubility: 37°C
Description: Appropriate amounts of Forms III, IV, and V were weighed and added to buffer solutions with pH 4.5 and 6.8 to prepare a suspension at 5 mg/mL. The resulting suspension was stirred at 37°C, and samples were collected and analyzed at 5, 30, 60, and 240 minutes. Use a syringe to draw approximate 1 mL of the suspension, filter it through a membrane filter, and dilute it several times before testing the resulting filtrate with HPLC, using the area normalization method to determine the solubility. Table 8 Tests of different crystal forms at various pH values

[5] = Pharmacokinetic (PK) determination in adult Beagle dogs; format: in vivo
Description: Healthy adult male Beagle dogs were obtained from Beijing Marshall Biotechnology Co., Ltd. Three groups were divided into this study and administered via oral gavage at a dose of 19.5 mg/kg. Animals receiving oral gavage were fasted overnight and from 10 hours before to 4 hours after administration. Blood samples were collected 15 minutes, 30 minutes, 45 minutes, 1 hour, 1.5 hours, 3 hours, 4 hours, 6 hours, 8 hours, and 24 hours after gavage. Blood samples (1 mL) were collected from the forelimb vein or other suitable venous sampling methods and placed in labeled EDTA-K2 anticoagulant tubes. After gentle inversion to thoroughly mix the anticoagulant with the blood, the tubes were immediately placed on wet ice. Plasma was separated by centrifugation within 1 hour of blood collection in the condition of 4°C, 2200g, and 10 minutes. The separated plasma was placed in labeled EP tubes. Plasma samples were immediately stored in an ultra-low temperature freezer until analysis. Plasma samples should be stored in a refrigerator at -70°C before testing. Plasma samples were extracted using protein precipitation, and the extracts were analyzed by LC/MS/MS.

[6] = Determination of bioavailability in adult SD rats; format: in vivo; conditions: Sprague-Dawley, rat, plasma, female SD rats
Description: Healthy adult female Sprague-Dawley rats were obtained from Beijing Weitong Lihua Laboratory Animal Technology Co., Ltd. The study was conducted in two phases: first, animals received a single intravenous injection of 1 mg/kg; second, one week later, the same group received a single oral gavage of the suspension at a dose of 10 mg/kg. Animals receiving oral gavage were fasted overnight and from 10 hours before to 4 hours after administration. Animals in the intravenous group were not restricted to food. Blood samples were collected at 0.083, 0.25, 0.5, 1, 2, 4, 6, 8, and 24 hours after administration for the intravenous group and at 0.25, 0.5, 1, 2, 4, 8, and 24 hours after administration for the oral group. After isoflurane anesthesia by using a small animal anesthesia machine, 0.4 ml of whole blood was obtained from the retinal venous plexus. The sample was centrifuged at 4000 rpm for 20 minutes at 4°C. Plasma was separated and placed in labeled EP tubes. Plasma samples were immediately stored in an ultra-low temperature freezer until analysis. Plasma samples should be stored in a refrigerator at -70°C before testing. Plasma samples were extracted using protein precipitation, and the extracts were analyzed by LC/MS/MS.

[7] = male Beagle dogs, oral gavage 19.5 mg/kg, 19.5 mg/kg
[8] = male Beagle dogs, oral gavage 19.5 mg/kg

Structure (SMILES) | 220nm (HPLC purity) ([3]; 0 days) [%] | 220nm (HPLC purity) ([3]; 25°C/60%RH, 3 days, uncovered) [%] | 220nm (HPLC purity) ([3]; 25°C/60%RH, 7 days, uncovered) [%] | 220nm (HPLC purity) ([3]; 40°C/75%RH, 3 days, uncovered) [%] | 220nm (HPLC purity) ([3]; 40°C/75%RH, 7 days, uncovered) [%] | chemical stability ([3]; 80°C) | crystal form change ([3]; 80°C) | 220nm (HPLC purity) ([3]; 80°C, 1 day, uncovered) [%] | 220nm (HPLC purity) ([3]; 80°C, 3 days, uncovered) [%] | 220nm (HPLC purity) ([3]; 80°C, 7 days, uncovered) [%] | solubility ([4]; PH=4.5 buffer, 5 min) [µg/mL] | solubility ([4]; PH=4.5 buffer, 30 min) [µg/mL] | solubility ([4]; PH=4.5 buffer, 60 min) [µg/mL] | solubility ([4]; PH=4.5 buffer, 240 min) [µg/mL] | solubility ([4]; pH=6.8 buffer, 5 min) [µg/mL] | solubility ([4]; pH=6.8 buffer, 30 min) [µg/mL] | solubility ([4]; pH=6.8 buffer, 60 min) [µg/mL] | solubility ([4]; pH=6.8 buffer, 240 min) [µg/mL] | AUC 0-inf [5, 7] [ng·h/mL] | AUC 0-t [5, 7] [ng·h/mL] | further results
N#CCC1(n2cc(-c3ncnc4[nH]ccc34)c(N)n2)CN(C2CCN(Cc3ccnc(C(F)(F)F)c3F)CC2)C1 [compound of formula I (amorphous form), 2-(3-(3-amino-4-(7H-pyrrolo[2,3-d]pyrimidin-4-yl)-1H-pyrazol-1-yl)-1-(1-(3-fluoro-2-(trifluoromethyl)isonicotinyl)piperidin-4-yl)azetidin-3-yl)acetonitrile] |  |  |  |  |  |  |  |  |  |  |  |  |  |  |  |  |  |  |  |  | IC50 [1]: < 10 nM
N#CCC1(n2cc(-c3ncnc4[nH]ccc34)c(N)n2)CN(C2CCN(C(=O)c3ccnc(C(F)(F)F)c3F)CC2)C1 [listing 1 of 3 here] | 99.83 | 99.90 | 99.95 | 99.89 | 99.90 | relatively stable | did not change | 99.90 | 99.89 | 99.91 | 41.3 (≈ 72.6 µM) | 60.1 (≈ 106 µM) | 65.5 (≈ 115 µM) | 84 (≈ 148 µM) | 11.2 (≈ 19.7 µM) | 29.9 (≈ 52.6 µM) | 33.2 (≈ 58.4 µM) | 41.5 (≈ 73 µM) | 13248 | 13174 | relative stability of Form II and Form III ([2]; Form II and Form III mixed, methanol/n-heptane 1/1, ethanol, ethyl acetate, room temperature, several hours, XRD): more stable than Form II; form transformation in competitive slurry [2]: transformed into Form IV; Tmax ([5]; dog, plasma, male Beagle dogs, oral gavage 19.5 mg/kg, read-out: Tmax): 1 h; C max [5, 7]: 4057 ng/mL; half-life ([5]; male, beagle, dog, plasma, po, 19.5 mg/kg, male Beagle dogs, oral gavage 19.5 mg/kg): 2.45 h
N#CCC1(n2cc(-c3ncnc4[nH]ccc34)c(N)n2)CN(C2CCN(C(=O)c3ccnc(C(F)(F)F)c3F)CC2)C1 [listing 2 of 3 here] | 99.57 | 99.59 | 99.63 | 99.53 | 99.63 | relatively stable | did not change | 99.57 | 99.60 | 99.57 | 47.1 (≈ 82.8 µM) | 65.6 (≈ 115 µM) | 70 (≈ 123 µM) | 73.4 (≈ 129 µM) | 24.7 (≈ 43.4 µM) | 37.2 (≈ 65.4 µM) | 40.2 (≈ 70.7 µM) | 40.2 (≈ 70.7 µM) | 27789 | 27750 | relative stability of the forms ([2]; conclusion from competitive slurry of Forms III, IV, V): the most stable of the five forms; solubility relative to Form V ([4]; pH = 4.5 (postprandial gastric juice), 240 min): twice that of Form V; solubility relative to Form V ([4]; pH = 6.8 (simulated intestinal fluid), 240 min): twice that of Form V; AUC 0-inf ([6]; IV (1 mg/kg)): 456 ng·h/mL; half-life ([6]; IV (1 mg/kg)): 0.61 h; clearance ([6]; IV (1 mg/kg), read-out: Cl s,app): 37.7 mL/min/kg; Vd ([6]; IV (1 mg/kg), read-out: VZ): 1.5 L/kg; bioavailability ([6]; PO (10 mg/kg) vs IV (1 mg/kg)): 17%; AUC 0-inf ([6]; PO (10 mg/kg), suspension): 783 ng·h/mL; Cmax ([6]; PO (10 mg/kg), suspension): 475 ng/mL; Tmax ([6]; PO (10 mg/kg), suspension): 0.5 h; half-life ([6]; PO (10 mg/kg), suspension): 1.9 h; pharmacokinetic properties after PO administration ([5]; comparison of the crystal forms): better pharmacokinetic properties; Tmax [5, 8]: 1.00 h; C max [5, 7]: 6197 ng/mL; t 1/2 [5, 7]: 2.63 h
N#CCC1(n2cc(-c3ncnc4[nH]ccc34)cn2)CN(C2CCN(C(=O)c3ccnc(C(F)(F)F)c3F)CC2)C1 [Itacitinib, reference compound] |  |  |  |  |  |  |  |  |  |  |  |  |  |  |  |  |  |  |  |  | IC50 [1]: < 10 nM
N#CCC1(n2cc(-c3ncnc4[nH]ccc34)c(N)n2)CN(C2CCN(C(=O)c3ccnc(C(F)(F)F)c3F)CC2)C1 [listing 3 of 3 here] | 98.02 | 98.10 | 97.87 | 98.02 | 98.01 | relatively stable | did not change | 98.05 | 98.03 | 98.02 | 11.2 (≈ 19.7 µM) | 25.8 (≈ 45.4 µM) | 28.9 (≈ 50.8 µM) | 35.6 (≈ 62.6 µM) | 7.6 (≈ 13.4 µM) | 13.3 (≈ 23.4 µM) | 16 (≈ 28.1 µM) | 19 (≈ 33.4 µM) | 8431 | 8354 | form transformation in competitive slurry [2]: transformed into Form IV; Tmax [5, 8]: 1.00 h; C max [5, 7]: 2440 ng/mL; t 1/2 [5, 7]: 2.86 h

Source: EP4682149A1 (Prime Gene Therapeutics Co., Ltd., priority 2023, dated 2024)
